Data as given in US20240122885A1, “Endometriosis-Related Methods and Compositions” (The Regents of the University of California, priority 2021, published 2024).

Test system: rat model of endometriosis
Assay: behavioral assessment of vaginal nociception (escape response) in rat model of endometriosis
Format: in vivo
Details: 30 mg/kg/day p.o.; for Post-Treatment period (PT) median escape response: four weeks of treatment, proestrus
Text: Baseline vaginal nociception was first assessed in rats. Then, endometriosis was induced when rats were four months of age by suturing uterine fragments within the peritoneal cavity to generate ectopic endometrium (lesions). […] In this model, four (2 mm×2 mm) pieces of uterine horn are auto transplanted onto cascading mesenteric arteries within the pelvic cavity of rats that are hormonally and immunologically intact. The present model avoids ovariectomy followed by estradiol supplementation that is common in most mouse models which eliminates the natural estradiol variations within the estrous cycle and the ability to assess drug treatment effects on fertility.
Behavioral assessment of vaginal nociception: Volumes of water (0.01, 0.15, 0.30, 0.40, 0.55, 0.70, 0.80, and 0.90 mL) were delivered via a vaginal balloon to the rat's vaginal canal. When the previously trained rat detects this stimulus as noxious, she will poke her head into a tube to break an infrared (IR) beam. This beam break terminates the stimulus (balloon deflates). During each testing session, eight different distention volumes were delivered randomly three times each ˜60 seconds apart. The maximum latency of 15 seconds is considered to be no response. The experimenter was blinded to the volumes being delivered.
Data analyses of behavioral results: Percent escape responses as a function of distention volume were measured in each session. For each rat, the escape response percentages as a function of distention volume from all sessions for each testing period were determined. The median escape response percentage and interquartile range (IQR) for all rats from each testing period was determined.
Statistical analyses were performed using Mann Whitney U test, and p-values were corrected using the Bonferroni correction method.

With CC(C(=O)O)c1cccc(Oc2ccccc2)c1 (stereo not shown) [fenoprofen] the “escape responses between the baseline period and the post-treatment period” value (any volume of water delivered, Mann Whitney U test, Bonferroni-corrected threshold 0.05) was “No statistically significant difference”, the “Post-Treatment period (PT) median escape response” value (volume 0.01 mL) was 0% and the “Post-Treatment period (PT) median escape response” value (volume 0.15 mL) was 0%. For the same compound, the “Post-Treatment period (PT) median escape response” value (volume 0.3 mL) was 0%, the “Post-Treatment period (PT) median escape response” value (volume 0.4 mL) was 16.65% and the “Post-Treatment period (PT) median escape response” value (volume 0.55 mL) was 33.3%. For the same compound, the “Post-Treatment period (PT) median escape response” value (volume 0.7 mL) was 66.6%, the “Post-Treatment period (PT) median escape response” value (volume 0.8 mL) was 100% and the “Post-Treatment period (PT) median escape response” value (volume 0.9 mL) was 100%. The “escape responses during the post-treatment period compared to the post-endo surgery period” value (volumes of 0.15, 0.3, 0.4, 0.55, 0.7 and 0.8 mL, Mann Whitney U test, Bonferroni-corrected threshold 0.05) was “significantly decreased”.
